Source: ChEMBL document CHEMBL4400544, “Pharmacokinetic evaluation of medicinally important synthetic N,N' diindolylmethane glucoside: Improved synthesis and metabolic stability” (Bioorg Med Chem Lett, 2019)
≈ marks a conversion by molar mass, not a printed value. Calls of active or inactive are those of the source. The rule behind the calls is not given here.

Assays:
[1] = Half life in rat liver microsomes at 10 uM in presence of NADPH by LC-MS/MS analysis; format: ADME, Microsome
[2] = Half life in human liver microsomes at 10 uM in presence of NADPH by LC-MS/MS analysis; format: ADME, Microsome
[3] = Hepatic intrinsic clearance in human liver microsomes assessed per kg body weight at 10 uM in presence of NADPH by LC-MS/MS analysis; format: ADME, Microsome
[4] = Hepatic clearance in human liver microsomes at 10 uM in presence of NADPH by LC-MS/MS analysis; format: ADME, Microsome
[5] = Stability in human liver microsomes at 10 uM in presence of NADPH by LC-MS/MS analysis; format: ADME, Microsome; conditions: read-out: Stability
[6] = Hepatic clearance in rat liver microsomes at 10 uM in presence of NADPH by LC-MS/MS analysis; format: ADME, Microsome
Rattus norvegicus [7] = species: Rattus norvegicus; assay: Inhibition of P-gp in rat jejuna mucosa crude membrane fractions assessed as ATPase activity preincubated for 5 mins followed by ATP addition and measured after 30 mins; format: cell membranes
[8] = Hepatic extraction ratio in human liver microsomes at 10 uM in presence of NADPH by LC-MS/MS analysis; format: ADME, Microsome; conditions: read-out: ERH
[9] = Stability in rat liver microsomes at 10 uM in presence of NADPH by LC-MS/MS analysis; format: ADME, Microsome; conditions: read-out: Stability
[10] = Intrinsic clearance in rat liver microsomes assessed per mg protein at 10 uM in presence of NADPH by LC-MS/MS analysis; format: ADME, Microsome; conditions: read-out: CLH
[11] = Aqueous solubility of compound after 5 hrs at 25 degC by LC-MS/MS analysis; format: physicochemical; conditions: aqueous medium (not specified further)
[12] = n-Octanol-PBS buffer distribution coefficient, log D of the compound after 4 hrs by LC-MS/MS analysis; format: physicochemical
[13] = Intrinsic clearance in human liver microsomes assessed per mg protein at 10 uM in presence of NADPH by LC-MS/MS analysis; format: ADME, Microsome; conditions: read-out: CLH
[14] = Ratio of drug level in blood to plasma (unknown origin) at 500 nM by LC-MS/MS analysis; format: ADME, cell-free; conditions: blood and plasma
[15] = Protein binding in plasma (unknown origin) at 10 to 100 uM after 4 hrs by LC-MS/MS analysis; format: ADME, cell-free; conditions: read-out: PPB
[16] = Hepatic intrinsic clearance in rat liver microsomes assessed per kg body weight at 10 uM in presence of NADPH by LC-MS/MS analysis; format: ADME, Microsome
[17] = n-Octanol/water partition co-efficient, log P of the compound after 4 hrs by LC-MS/MS analysis; format: physicochemical
[18] = Hepatic extraction ratio in rat liver microsomes at 10 uM in presence of NADPH by LC-MS/MS analysis; format: ADME, Microsome; conditions: read-out: ERH
Rattus norvegicus [19] = species: Rattus norvegicus; assay: Inhibition of P-gp in rat jejuna mucosa crude membrane fractions assessed as reduction in ATPase activity preincubated for 5 mins followed by ATP addition and measured after 30 mins; format: cell membranes

half-life at 10 µM [1] [h] | half-life at 10 µM [2] [h] | CLH [3] [mL/min/kg] | CLH [4] [mL/min/kg] | remaining at 10 µM [5] [%] | CLH [6] [mL/min/kg] | Activity (Rattus norvegicus [7]) [µM/min] | hepatic extraction ratio at 10 µM [8] | remaining at 10 µM [9] [%] | microsomal CLint at 10 µM [10] [µL/min/mg] | solubility at 5 h [11] [µg/mL] | logD at 4 h [12] | microsomal CLint at 10 µM [13] [µL/min/mg] | blood plasma ratio at 0.5 µM [14] | fraction unbound at 4 h, up to 100 µM [15] | CLH [16] [mL/min/kg] | logP at 4 h [17] | hepatic extraction ratio at 10 µM [18] | inhibition (Rattus norvegicus [19]) | SMILES
1.16 | 1.35 | 22.3 | 10.6 | > 73 | 21.7 | 5.5 to 6.1 | 0.5 | > 73 | 20 | 5.8 (≈ 7.02 µM) | 0.08 | 19 | ≤ 1.4 | < 0.01 | 35.9 | 1.06 | 0.39 |  | CCCCCCCC(c1cn([C@@H]2O[C@H](CO)[C@@H](O)[C@H](O)[C@H]2O)c2ccc(Br)cc12)c1cn([C@@H]2O[C@H](CO)[C@@H](O)[C@H](O)[C@H]2O)c2ccc(Br)cc12
 |  |  |  |  |  |  |  |  |  |  |  |  |  |  |  |  |  | Active | O[C@@H](COc1cccc2ncccc12)CN1CCN([C@@H]2c3ccccc3[C@@H]3[C@H](c4ccccc42)C3(F)F)CC1
 |  |  |  |  |  |  |  |  |  |  |  |  | ≤ 1.2 |  |  |  |  |  | CC(C)NCC(O)COc1ccc(CC(N)=O)cc1 (stereo not given) [ATENOLOL]
